# In article PMC8040948 (Journal of medicinal chemistry, 2020):
# “Also recorded” adds a separate entry of the source. Read-outs that look alike come from different tables or passages of the source.
# Assays:
# δ-opioid (DOR) receptor = δ-opioid (DOR) receptor (Homo sapiens, UniProt P41143); test: PDSP off-target binding, DOR
# hP2Y14R [1] = molecular target: T1, hP2Y14R (Homo sapiens, UniProt Q15391); format: binding; details: for fold lower hP2Y14R affinity than 22: relative to reference 22; for fold lower hP2Y14R affinity than 2: relative to reference triazole 2
# T1 sequence (Q15391 1-338): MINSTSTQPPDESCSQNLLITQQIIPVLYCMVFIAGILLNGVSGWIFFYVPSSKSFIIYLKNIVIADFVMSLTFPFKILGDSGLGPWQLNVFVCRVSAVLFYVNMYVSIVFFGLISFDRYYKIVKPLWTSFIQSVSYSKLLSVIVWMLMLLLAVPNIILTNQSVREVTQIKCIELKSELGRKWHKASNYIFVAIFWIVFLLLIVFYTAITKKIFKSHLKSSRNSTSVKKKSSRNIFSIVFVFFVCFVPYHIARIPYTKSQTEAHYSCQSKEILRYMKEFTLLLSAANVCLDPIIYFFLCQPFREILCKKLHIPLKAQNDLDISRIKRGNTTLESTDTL
# [2] = test system: CCI of the sciatic nerve in adult male ICR mice; details: mouse, 10 μmol/kg, ip; ref Mufti et al.[12]; cited from earlier work
# [3] = test system: 46 receptors, transporters, and ion channels; details: non-P2YR off-target screen; ref [8],[9]; cited from earlier work
# other P2YRs = details: ref [8],[17]; cited from earlier work
# ASP/OVA-sensitized mice = test: Ovalbumin/Aspergillus protease mouse model of allergic asthma, BALF cell counts; details: 10 mg/kg ip 30 min prior to allergen challenge, BALF 2 days post-challenge
# hP2Y14R [4] = molecular target: T1, hP2Y14R; test: Competitive binding assay of CHO-hP2Y14R cells at different pH levels
# [5] = Aqueous solubility, pION method
# [6] = Pharmacokinetics in the rat, ip and iv
# [7] = Plasma protein binding in three species
# [8] = Observed solubility in water, DMSO or aqueous DMSO; details: for solubility in DMSO at 1 mM: as a zwitterion, 1 mM in DMSO
# CB1 cannabinoid receptor = CB1 cannabinoid receptor (Homo sapiens, UniProt P21554); test: PDSP functional agonist/antagonist assay, CB1; format: cell-based
# Chain of CB1 cannabinoid receptor (P21554 whole entry): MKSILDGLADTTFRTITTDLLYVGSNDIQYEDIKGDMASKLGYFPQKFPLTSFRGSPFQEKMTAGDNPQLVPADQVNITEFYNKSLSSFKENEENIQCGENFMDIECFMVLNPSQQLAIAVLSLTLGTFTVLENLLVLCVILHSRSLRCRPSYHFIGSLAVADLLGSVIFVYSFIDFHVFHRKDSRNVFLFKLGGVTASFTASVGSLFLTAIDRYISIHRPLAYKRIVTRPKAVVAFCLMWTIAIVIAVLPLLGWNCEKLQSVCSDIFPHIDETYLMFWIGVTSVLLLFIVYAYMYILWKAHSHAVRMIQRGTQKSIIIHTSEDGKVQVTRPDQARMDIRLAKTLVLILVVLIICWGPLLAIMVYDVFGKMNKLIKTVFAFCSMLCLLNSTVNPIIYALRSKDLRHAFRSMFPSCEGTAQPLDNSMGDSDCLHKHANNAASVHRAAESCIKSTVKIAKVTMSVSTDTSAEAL
# CB2 cannabinoid receptor = CB2 cannabinoid receptor (Homo sapiens, UniProt P34972); test: PDSP functional agonist/antagonist assay, CB2; format: cell-based
# Chain of CB2 cannabinoid receptor (P34972 whole entry): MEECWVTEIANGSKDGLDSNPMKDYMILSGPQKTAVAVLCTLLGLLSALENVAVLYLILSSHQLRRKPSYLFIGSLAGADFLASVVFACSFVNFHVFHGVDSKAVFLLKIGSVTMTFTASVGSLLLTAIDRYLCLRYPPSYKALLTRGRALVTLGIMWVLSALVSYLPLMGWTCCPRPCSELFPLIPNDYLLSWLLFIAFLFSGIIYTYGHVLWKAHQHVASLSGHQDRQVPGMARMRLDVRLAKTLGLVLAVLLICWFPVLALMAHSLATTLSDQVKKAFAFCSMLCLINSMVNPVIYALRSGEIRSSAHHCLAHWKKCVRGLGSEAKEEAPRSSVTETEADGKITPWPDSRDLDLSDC
# mP2Y14R [9] = molecular target: T2, mP2Y14R (Mus musculus, UniProt Q9ESG6); details: mP2Y14R-expressing HEK293 cells, 1 μM, fluorescence micrographs; ref [12]; cited from earlier work
# T2 sequence (Q9ESG6 1-338): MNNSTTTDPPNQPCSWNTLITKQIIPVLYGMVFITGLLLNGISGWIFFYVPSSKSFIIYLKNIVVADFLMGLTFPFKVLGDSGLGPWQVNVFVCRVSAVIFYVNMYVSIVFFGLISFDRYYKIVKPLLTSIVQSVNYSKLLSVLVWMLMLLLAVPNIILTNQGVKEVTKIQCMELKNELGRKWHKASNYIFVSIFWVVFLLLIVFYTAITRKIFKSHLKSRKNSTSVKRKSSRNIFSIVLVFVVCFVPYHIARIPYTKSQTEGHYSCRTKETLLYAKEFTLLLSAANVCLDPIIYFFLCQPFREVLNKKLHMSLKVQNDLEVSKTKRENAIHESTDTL
# [10] = Relative lipophilicity from RP-HPLC retention time; format: physicochemical; details: RP-HPLC retention time (C18), 10 to 100% acetonitrile in 10 mM triethylammonium acetate
# [11] = test system: CCI of the sciatic nerve in adult male ICR mice; test: Chronic constriction injury; details: mouse, 10 μmol/kg, ip
# mP2Y14R [12] = molecular target: T2, mP2Y14R; details: species comparison
# Chain of δ-opioid (DOR) receptor (P41143 whole entry): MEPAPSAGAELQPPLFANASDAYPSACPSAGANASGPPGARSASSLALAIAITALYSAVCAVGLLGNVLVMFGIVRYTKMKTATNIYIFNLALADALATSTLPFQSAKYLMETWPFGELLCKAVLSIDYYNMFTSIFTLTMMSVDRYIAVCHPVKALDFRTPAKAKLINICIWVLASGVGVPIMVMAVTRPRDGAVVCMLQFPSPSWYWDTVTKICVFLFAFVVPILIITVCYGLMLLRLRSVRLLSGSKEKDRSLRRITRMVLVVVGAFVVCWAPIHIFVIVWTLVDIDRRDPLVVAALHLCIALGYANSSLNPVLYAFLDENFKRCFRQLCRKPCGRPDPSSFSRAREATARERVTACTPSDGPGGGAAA
structure (smiles),measurement,setting,value
"NCCCNC(=O)c1ccc(-c2cc(C(=O)O)cc(-c3cn(-c4ccc(C(F)(F)F)cc4)nn3)c2)s1 [Compound 26, 3-(5-((3-Aminopropyl)carbamoyl)thiophen-2-yl)-5-(1-(4-(trifluoromethyl)phenyl)-1H-1,2,3-triazol-4-yl)benzoic Acid]",Ki,δ-opioid (DOR) receptor,2.96 µM
"O=C(O)c1cc(NC(=O)C23C4C5C2C2C3C4C52CO)cc(-c2ccc(C3CCNCC3)cc2)c1 (stereo not drawn) [Compound 28, 5-(4-(Hydroxymethyl)cubane-1-carboxamido)-4′-(piperidin-4-yl)-[1,1′-biphenyl]-3-carboxylic Acid]",IC50,"hP2Y14R [1]; IC50 (μM), Table 1B, cells that print only footnote mark c",> 100 µM
same,IC50,hP2Y14R [1]; IC50 at hP2Y14R,> 100 µM
"CC(=O)N1CCC(c2ccc(-c3cc(C(=O)O)cc4cc(-c5ccc(C(F)(F)F)cc5)ccc34)cc2)CC1 [Compound 8, 4-(4-(1-(Acetyl)piperidin-4-yl)phenyl)-7-(4-(trifluoromethyl)phenyl)-2-naphthoic Acid]",efficacy in CCI model,[2],effective
"O=C(O)c1cc(-c2ccc(C3CCNCC3)cc2)c2nc(-c3ccc(C(F)(F)F)cc3)[nH]c2c1 [Compound 35, 4-(4-(Piperidin-4-yl)phenyl)-2-(4-(trifluoromethyl)phenyl)-1H-benzo[d]imidazole-6-carboxylic Acid]",IC50,hP2Y14R [1]; IC50 at hP2Y14R,> 100 µM
"O=C(O)c1cc(-c2ccc(C3CCNCC3)cc2)cc(-n2cc(-c3ccc(C(F)(F)F)cc3)nn2)c1 [Compound 2, reference compound]",off-target interactions,[3],no detected off-target interactions
same,activity at other P2YRs,other P2YRs,inactive
same,effect on eosinophilic airway inflammation,ASP/OVA-sensitized mice,inactive
"O=C(O)c1cc(-c2ccc(C34CCN(CC3)CC4)cc2)c2ccc(-c3ccc(C(F)(F)F)cc3)cc2c1 [Compound 17, 4-(4-(Quinuclidin-4-yl)phenyl)-7-(4-(trifluoromethyl)phenyl)-2-naphthoic Acid]",IC50,hP2Y14R [4],0.0308 ± 0.0022 µM
same,solubility,"[5]; pH 4, aqueous solubility (pH 4.0, μg/mL), Table 5, pH 4.0, mean ± SD, pION method",14.3 ± 0.5 µg/mL
same,solubility,"[5]; pH 7.4, aqueous solubility (pH 7.4, μg/mL), Table 5, pH 7.4, mean ± SD, pION method",0.44 ± 0.06 µg/mL
same,time at which maximal plasma concentration was reached,[6],3 to 4 h
same,plasma concentration at the 12 h time point,"[6]; highest dose (10 mg/kg), 12 h",200 to 400 ng/kg
same,plasma protein binding,[7],high
same,solubility,[8],≥ 1000 µg/mL
same,solubility in DMSO at 1 mM,[8],readily soluble
same,effect on eosinophilic airway inflammation,ASP/OVA-sensitized mice,protected
"CCCN1CCC(c2ccc(-c3cc(C(=O)O)cc4cc(-c5ccc(C(F)(F)F)cc5)ccc34)cc2)CC1 [Compound 6b, 4-(4-(1-Propylpiperidin-4-yl)phenyl)-7-(4-(trifluoromethyl)phenyl)-2-naphthoic Acid]",off-target interactions,[3],no detected off-target interactions
"NCCCNC(=O)c1ccc(-c2cc(C(=O)O)cc(-n3cc(-c4ccc(C(F)(F)F)cc4)nn3)c2)s1 [Compound 23, reference compound]",plasma protein binding,[7],high
same,effect on eosinophilic airway inflammation,ASP/OVA-sensitized mice,protected
"C#CCCCCN1CCC(c2ccc(-c3cc(C(=O)O)cc4cc(-c5ccc(C(F)(F)F)cc5)ccc34)cc2)CC1 [Compound 7a, 4-(4-(1-(Hex-5-yn-1-yl)piperidin-4-yl)phenyl)-7-(4-(trifluoromethyl)phenyl)-2-naphthoic Acid]",off-target interactions,[3],no detected off-target interactions
same,effect on eosinophilic airway inflammation,ASP/OVA-sensitized mice,protected; also recorded: highest potency of reducing eosinophil infiltration
"NC(=O)c1ccc(-c2cc(NC(=O)c3ccc(C(F)(F)F)cc3)cc(C(=O)O)c2)cc1 [Compound 27, 4′-Carbamoyl-5-(4-(trifluoromethyl)benzamido)-[1,1′-biphenyl]-3-carboxylic Acid]",fold lower hP2Y14R affinity than 22,hP2Y14R [1],11 fold
"O=C(O)c1cc(-c2ccc(C34CCNCC3C4(F)F)cc2)cc(-n2cc(-c3ccc(C(F)(F)F)cc3)nn2)c1 (stereo not drawn) [Compound 20, 4′-(7,7-Difluoro-3-azabicyclo[4.1.0]heptan-6-yl)-5-(4-(4-(trifluoromethyl)phenyl)-1H-1,2,3-triazol-1-yl)-[1,1′-biphenyl]-3-carboxylic Acid]",fold lower hP2Y14R affinity than 2,hP2Y14R [1],20 fold
"NC(=O)c1ccc(-c2cc(C(=O)O)cc(-c3cn(-c4ccc(C(F)(F)F)cc4)nn3)c2)cc1 [Compound 24, 4′-Carbamoyl-5-(1-(4-(trifluoromethyl)phenyl)-1H-1,2,3-triazol-4-yl)-[1,1′-biphenyl]-3-carboxylic Acid]",fold lower hP2Y14R affinity than 22,hP2Y14R [1],6.2 fold
"O=C(O)c1cc(-c2ccc(C34CCNCC3C4)cc2)cc(-n2cc(-c3ccc(C(F)(F)F)cc3)nn2)c1 (stereo not drawn) [Compound 19, 4′-(3-Azabicyclo[4.1.0]heptan-6-yl)-5-(4-(4-(trifluoromethyl)phenyl)-1H-1,2,3-triazol-1-yl)-[1,1′-biphenyl]-3-carboxylic Acid]",fold lower hP2Y14R affinity than 2,hP2Y14R [1],11 fold
"C[N+]12CCC(c3ccc(-c4cc(C(=O)O)cc5cc(-c6ccc(C(F)(F)F)cc6)ccc45)cc3)(CC1)CC2 [Compound 21, 4-(4-(1-Methylquinuclidin-1-ium-4-yl)phenyl)-7-(4-(trifluoromethyl)phenyl)-2-naphthoate]",plasma protein binding,[7],high
"O=C(O)c1cc(-c2ccc(C3CCNCC3)cc2)c2ccc(-c3ccc(C(F)(F)F)cc3)cc2c1 [Compound 1, 4-[4-(4-piperidinyl)-phenyl]-7-[4-(trifluoromethyl)phenyl]-2-naphthalenecarboxylic acid, reference compound]",IC50,CB1 cannabinoid receptor,> 10 µM
same,IC50,CB2 cannabinoid receptor,> 10 µM
same,inhibition of intact cell binding of 36,mP2Y14R [9],almost completely inhibited
same,efficacy in CCI model,[2],effective
same,solubility in DMSO at 1 mM,[8],failed to dissolve
same,effect on eosinophilic airway inflammation,ASP/OVA-sensitized mice,protected; also recorded: strongly attenuated eosinophilic airway inflammation
"O=C(O)c1cc(-c2ccc(C3CCNCC3)cc2)cc(-c2cn(-c3ccc(C(F)(F)F)cc3)nn2)c1 [Compound 25, 4′-(Piperidin-4-yl)-5-(1-(4-(trifluoromethyl)phenyl)-1H-1,2,3-triazol-4-yl)-[1,1′-biphenyl]-3-carboxylic Acid]",IC50,CB1 cannabinoid receptor,> 10 µM
same,IC50,CB2 cannabinoid receptor,> 10 µM
same,plasma protein binding,[7],high
"NCCOCCOCCOCCOCCOCCOCCC(=O)N1CCC(c2ccc(-c3cc(C(=O)O)cc4cc(-c5ccc(C(F)(F)F)cc5)ccc34)cc2)CC1 [Compound 12, 4-(4-(1-(1-Amino-3,6,9,12,15,18-hexaoxahenicosan-21-oyl)piperidin-4-yl)phenyl)-7-(4-(trifluoromethyl)phenyl)-2-naphthoic Acid]",IC50,"hP2Y14R [1]; hP2Y14R, IC50 (nM), Table 2, hP2Y14R-CHO cells, values from Tables 1A and 1B",0.963 ± 0.417 µM
same,"lipophilicity (Δk), relative to 1",[10],0.71 ± 0.03
same,solubility,[5]; pH 4,8.02 ± 1.01 µg/mL
same,solubility,[5]; pH 7.4,7.16 ± 1.16 µg/mL
same,fold greater aqueous solubility than 1,"[5]; pH 7.4, relative to 1",~20 fold
same,plasma protein binding,[7],high
same,solubility,[8]; water,≥ 150 mM
same,effect on eosinophilic airway inflammation,ASP/OVA-sensitized mice,inactive
same,effect on the hind paw response contralateral to the injury,[11],No effect
same,time of peak protection post-injection,[11],1 to 2 h
same,reversal of CCI-induced mechano-allodynia,"[11]; 7 days post-CCI, ipsilateral hind paw",reduced chronic pain; also recorded: fully efficacious
same,fold greater affinity at the mouse homologue than at the hP2Y14R,mP2Y14R [12],2 fold
